US10729133B2, “Cornfield herbicidal composition and application thereof” (priority 2016, dated 2020)
“And” between values parts separate entries of the source, which are not always exact repeats. Identical values can stand only once.

What was measured:
Assay in all cases: Pot-culture stem and leaf treatment, fresh weight inhibition (Gowing method)
Format in all cases: in vivo
Amaranthus retrollexus = conditions: Amaranthus retroflexus
Text: (§1) Echinochloa crusgalli, Setaria viridis, Chenopodium album, Amaranthus retrollexus were collected from corn fields in Qingdao of Shandong Province. Sonchus brachyotus were collected from corn fields in Shenyang of Liaoning Province. Rhizoma Cyperi, Convolvulus arvensis were collected from corn fields in Shangqiu of Henan Province. Cirsium setosum were collected from corn fields in Xiantao of Hubei Province.
(§2) The above weeds were cultivated by a pot culture method. […] Full and uniform weed seeds were selected, soaked in warm water at 25° C. for 6 hours, and germinated in a 28° C. biochemical incubator (darkness). […] A certain amount of water was added to the enamel pan regularly to keep the soil moist.
(§3) The technical materials were all dissolved in acetone, and diluted with an aqueous solution containing 0.1% emulsifier T-80. The dilution is performed as required.
(§4) 3 pots with 20 weed seeds per pot were treated in one treatment with […] per treatment, that is, a total of 60 weeds were treated in one treatment.
(§5) The agents were used for only once in the experiment. In the stage of weeds with 2 leaves and 1 core, the weeds were thinned out to maintain 15 weeds per pot and 45 weeds for each treatment, then continued to be cultured to 5-leaves and 1-core stage of Echinochloa crusgalli and Setaria viridis, and treated.
(§6) The well-cultured weeds were evenly placed on a platform with an area of 0.5 m^2, and a solution of agents was sprayed on the stems and leaves thereof by the 3WP-2000-type walking spray tower at a dosage of 30 kg/ha and at a spray pressure of 0.3 MPa. After all the solution was sprayed, the valve was closed. After 30 seconds, the door of the spray tower was opened, and the nutritional bowl was taken out. Then the valve was opened, and the spray tube was cleaned by spraying 50 ml of water.
(§7) A pot-culture method was employed. For the cultivation of weeds, please refer to the Section 1.1, and “Pesticide guidelines for laboratory bioactivity tests—herbicides”. As to a method for applying agents, please refer to the section 2.3.2, that is, a method for treating stems and leaves was employed.
(§8) A method for investigating absolute number was employed, wherein whole seedlings of survival weeds were cut off with a blade along the soil surface, and the fresh weight of the weeds was weighed with an analytical balance. For dead weeds, the fresh weight thereof was zero.
(§9) The investigation was performed after 20 days of the treatment for only once.
(§10) Wherein, in the formula, X represented the fresh weight inhibition rate of A in a dosage of P, and Y represented the fresh weight inhibition rate of the active ingredient B in a dosage of Q.

Convolvulus arvensis = test system: Convolvulus arvensis
Text: as §1, §2, §3, §4, §5, §6, §7, §8, §9, §10

Sonchus brachyotus = test system: Sonchus brachyotus
Text: as §1, §2, §3, §4, §5, §6, §7, §8, §9, §10

Chenopodium album = conditions: for actual fresh weight inhibition rate (%): Chenopodium album
Text: as §1, §2, §3, §4, §5, §6, §7, §8, §9, §10

Echinochloa crusgalli = test system: Echinochloa crusgalli
Text: as §1
(§11) The above weeds were cultivated by a pot culture method. […] Full and uniform weed seeds were selected, soaked in warm water at 25° C. for 6 hours, and germinated in a 28° C. biochemical incubator (darkness). The weed seeds that had just germinated were evenly placed on the surface of the soil and then covered with 0.7 cm soil, and cultured in a controllable sunlight greenhouse after being treated with agents. A certain amount of water was added to the enamel pan regularly to keep the soil moist.
(§12) The culture was carried out in a controllable sunlight greenhouse at 18 to 30° C., in natural light, and relative humidity of 57% to 72%.
as §3, §4, §5, §6, §7, §8, §9
(§13) An optimum ratio of the two active ingredients was determined by the actual control effect, characteristics of herbicides, and balance of a corresponding formula.
as §10

Rhizoma Cyperi = test system: Rhizoma Cyperi
Text: as §1, §11, §12, §3, §4, §5, §6, §7, §8, §9, §13, §10

Setaria viridis = test system: Setaria viridis
Text: as §1, §11, §12, §3, §4, §5, §6, §7, §8, §9, §13, §10

Cirsium setosum = test system: Cirsium setosum
Text: as §1, §11, §12, §3, §4, §5, §6, §7, §8, §9, §13, §10

[1] = dosage of active ingredient 45 g/hm^2
[2] = dosage of active ingredient 90 g/hm^2
[3] = dosage of active ingredient 180 g/hm^2
[4] = dosage of active ingredient 112.5 g/hm^2
[5] = dosage of active ingredient 225 g/hm^2
[6] = dosage of active ingredient 450 g/hm^2

CCn1ncc(C(=O)c2ccc(S(C)(=O)=O)c(COCC(F)(F)F)c2Cl)c1OC(=O)c1cn(C)nc1C [A1]
actual fresh weight inhibition rate (%) (Amaranthus retrollexus; [1]): 45.7%
actual fresh weight inhibition rate (%) (Amaranthus retrollexus; [2]): 81.6%
actual fresh weight inhibition rate (%) (Amaranthus retrollexus; [3]): 100%
actual fresh weight inhibition rate (Convolvulus arvensis; dosage 45 g/hm^2): 23.2%
actual fresh weight inhibition rate (Convolvulus arvensis; dosage 90 g/hm^2): 38.9%
actual fresh weight inhibition rate (Convolvulus arvensis; dosage 180 g/hm^2): 48.2%
actual fresh weight inhibition rate (Sonchus brachyotus; dosage 45 g/hm^2): 32.1%
actual fresh weight inhibition rate (Sonchus brachyotus; dosage 90 g/hm^2): 53.2%
actual fresh weight inhibition rate (Sonchus brachyotus; dosage 180 g/hm^2): 78.8%
actual fresh weight inhibition rate (%) (Chenopodium album; [1]): 19.1%
actual fresh weight inhibition rate (%) (Chenopodium album; [2]): 30.2%
actual fresh weight inhibition rate (%) (Chenopodium album; [3]): 48.7%
actual fresh weight inhibition rate (Chenopodium album; dosage 45 g/hm^2): 19.1%
actual fresh weight inhibition rate (Chenopodium album; dosage 90 g/hm^2): 30.2%
actual fresh weight inhibition rate (Chenopodium album; dosage 180 g/hm^2): 48.7%
actual fresh weight inhibition rate (Echinochloa crusgalli; dosage 45 g/hm^2): 54.2% and 42.4%
actual fresh weight inhibition rate (Echinochloa crusgalli; dosage 90 g/hm^2): 82.1% and 83.5%
actual fresh weight inhibition rate (Echinochloa crusgalli; dosage 180 g/hm^2): 100%
actual fresh weight inhibition rate (Rhizoma Cyperi; dosage 45 g/hm^2): 22.8%
actual fresh weight inhibition rate (Rhizoma Cyperi; dosage 90 g/hm^2): 31.1%
actual fresh weight inhibition rate (Rhizoma Cyperi; dosage 180 g/hm^2): 44.2%
actual fresh weight inhibition rate (Setaria viridis; dosage 45 g/hm^2): 45.7% and 42.1% and 39.9%
actual fresh weight inhibition rate (Setaria viridis; dosage 90 g/hm^2): 81.6% and 80.3% and 81.2%
actual fresh weight inhibition rate (Setaria viridis; dosage 180 g/hm^2): 100%
actual fresh weight inhibition rate (Cirsium setosum; dosage 45 g/hm^2): 19.3%
actual fresh weight inhibition rate (Cirsium setosum; dosage 90 g/hm^2): 20.4%
actual fresh weight inhibition rate (Cirsium setosum; dosage 180 g/hm^2): 38.5%

CC(C)c1nn(C(=O)NC(C)(C)C)c(=O)n1N [amicarbazone]
actual fresh weight inhibition rate (%) (Amaranthus retrollexus; [4]): 21.6%
actual fresh weight inhibition rate (%) (Amaranthus retrollexus; [5]): 31.9%
actual fresh weight inhibition rate (%) (Amaranthus retrollexus; [6]): 41.8%
actual fresh weight inhibition rate (%) (Chenopodium album; [4]): 36.5%
actual fresh weight inhibition rate (%) (Chenopodium album; [5]): 45.9%
actual fresh weight inhibition rate (%) (Chenopodium album; [6]): 64.3%

CCNc1nc(Cl)nc(NC(C)C)n1 [atrazine]
actual fresh weight inhibition rate (Echinochloa crusgalli; dosage 375 g/hm^2): 20.3%
actual fresh weight inhibition rate (Echinochloa crusgalli; dosage 750 g/hm^2): 34.2%
actual fresh weight inhibition rate (Echinochloa crusgalli; dosage 1500 g/hm^2): 45.1%
actual fresh weight inhibition rate (Setaria viridis; dosage 375 g/hm^2): 21.3%
actual fresh weight inhibition rate (Setaria viridis; dosage 750 g/hm^2): 31.4%
actual fresh weight inhibition rate (Setaria viridis; dosage 1500 g/hm^2): 41.4%

CC(C)N1C(=O)c2ccccc2NS1(=O)=O [bentazone]
actual fresh weight inhibition rate (Chenopodium album; dosage 150 g/hm^2): 56.5%
actual fresh weight inhibition rate (Chenopodium album; dosage 300 g/hm^2): 75.9%
actual fresh weight inhibition rate (Chenopodium album; dosage 600 g/hm^2): 94.3%
actual fresh weight inhibition rate (Rhizoma Cyperi; dosage 150 g/hm^2): 65.3%
actual fresh weight inhibition rate (Rhizoma Cyperi; dosage 300 g/hm^2): 83.5%
actual fresh weight inhibition rate (Rhizoma Cyperi; dosage 600 g/hm^2): 92.1%

CCCCCCCC(=O)Oc1c(Br)cc(C#N)cc1Br [bromoxynil octanoate]
actual fresh weight inhibition rate (Convolvulus arvensis; dosage 112.5 g/hm^2): 58.9%
actual fresh weight inhibition rate (Convolvulus arvensis; dosage 225 g/hm^2): 79.2%
actual fresh weight inhibition rate (Convolvulus arvensis; dosage 450 g/hm^2): 98.1%
actual fresh weight inhibition rate (Sonchus brachyotus; dosage 112.5 g/hm^2): 56.2%
actual fresh weight inhibition rate (Sonchus brachyotus; dosage 225 g/hm^2): 78.3%
actual fresh weight inhibition rate (Sonchus brachyotus; dosage 450 g/hm^2): 99.2%

CCCCOCN(C(=O)CCl)c1c(CC)cccc1CC [butachlor]
actual fresh weight inhibition rate (Echinochloa crusgalli; dosage 375 g/hm^2): 2.4%
actual fresh weight inhibition rate (Echinochloa crusgalli; dosage 750 g/hm^2): 3.9%
actual fresh weight inhibition rate (Echinochloa crusgalli; dosage 1500 g/hm^2): 5.4%
actual fresh weight inhibition rate (Setaria viridis; dosage 375 g/hm^2): 2.7%
actual fresh weight inhibition rate (Setaria viridis; dosage 750 g/hm^2): 3.8%
actual fresh weight inhibition rate (Setaria viridis; dosage 1500 g/hm^2): 5.9%

COc1c(Cl)ccc(Cl)c1C(=O)O [dicamba]
actual fresh weight inhibition rate (Convolvulus arvensis; dosage 75 g/hm^2): 64.4%
actual fresh weight inhibition rate (Convolvulus arvensis; dosage 150 g/hm^2): 78.9%
actual fresh weight inhibition rate (Convolvulus arvensis; dosage 300 g/hm^2): 92.8%
actual fresh weight inhibition rate (Chenopodium album; dosage 75 g/hm^2): 66.2%
actual fresh weight inhibition rate (Chenopodium album; dosage 150 g/hm^2): 85.3%
actual fresh weight inhibition rate (Chenopodium album; dosage 300 g/hm^2): 100%

O=C(Nc1ccc(F)cc1F)c1cccnc1Oc1cccc(C(F)(F)F)c1 [diflufenican]
actual fresh weight inhibition rate (Echinochloa crusgalli; dosage 75 g/hm^2): 7.2%
actual fresh weight inhibition rate (Echinochloa crusgalli; dosage 150 g/hm^2): 9.4%
actual fresh weight inhibition rate (Echinochloa crusgalli; dosage 300 g/hm^2): 10.3%
actual fresh weight inhibition rate (Setaria viridis; dosage 75 g/hm^2): 3.9%
actual fresh weight inhibition rate (Setaria viridis; dosage 150 g/hm^2): 8.3%
actual fresh weight inhibition rate (Setaria viridis; dosage 300 g/hm^2): 10.5%

Nc1c(Cl)c(F)nc(OCC(=O)O)c1Cl [fluroxypyr]
actual fresh weight inhibition rate (Convolvulus arvensis; dosage 60 g/hm^2): 63.2%
actual fresh weight inhibition rate (Convolvulus arvensis; dosage 120 g/hm^2): 78.2%
actual fresh weight inhibition rate (Convolvulus arvensis; dosage 240 g/hm^2): 92.2%
actual fresh weight inhibition rate (Cirsium setosum; dosage 60 g/hm^2): 56.2%
actual fresh weight inhibition rate (Cirsium setosum; dosage 120 g/hm^2): 79.2%
actual fresh weight inhibition rate (Cirsium setosum; dosage 240 g/hm^2): 95.4%

COC(=O)c1c(Cl)nn(C)c1S(=O)(=O)NC(=O)Nc1nc(OC)cc(OC)n1 [halosulfuron-methyl]
actual fresh weight inhibition rate (Rhizoma Cyperi; dosage 15 g/hm^2): 67.2%
actual fresh weight inhibition rate (Rhizoma Cyperi; dosage 30 g/hm^2): 89.3%
actual fresh weight inhibition rate (Rhizoma Cyperi; dosage 60 g/hm^2): 100%

CSc1nnc(C(C)(C)C)c(=O)n1N [metribuzin]
actual fresh weight inhibition rate (Echinochloa crusgalli; dosage 112.5 g/hm^2): 22.4%
actual fresh weight inhibition rate (Echinochloa crusgalli; dosage 225 g/hm^2): 32.1%
actual fresh weight inhibition rate (Echinochloa crusgalli; dosage 450 g/hm^2): 42.5%
actual fresh weight inhibition rate (Setaria viridis; dosage 112.5 g/hm^2): 21.5%
actual fresh weight inhibition rate (Setaria viridis; dosage 225 g/hm^2): 33.6%
actual fresh weight inhibition rate (Setaria viridis; dosage 450 g/hm^2): 43.5%

COc1cc(OC)nc(NC(=O)NS(=O)(=O)c2ncccc2C(=O)N(C)C)n1 [nicosulfuron]
actual fresh weight inhibition rate (Echinochloa crusgalli; dosage 15 g/hm^2): 33.1%
actual fresh weight inhibition rate (Echinochloa crusgalli; dosage 30 g/hm^2): 74.5%
actual fresh weight inhibition rate (Echinochloa crusgalli; dosage 60 g/hm^2): 100%
actual fresh weight inhibition rate (Setaria viridis; dosage 15 g/hm^2): 45.7%
actual fresh weight inhibition rate (Setaria viridis; dosage 30 g/hm^2): 79.6%
actual fresh weight inhibition rate (Setaria viridis; dosage 60 g/hm^2): 100%

CCc1cccc(C)c1N(C(=O)CCl)[C@@H](C)COC [s-metolachlor]
actual fresh weight inhibition rate (Echinochloa crusgalli; dosage 375 g/hm^2): 2.5%
actual fresh weight inhibition rate (Echinochloa crusgalli; dosage 750 g/hm^2): 3.4%
actual fresh weight inhibition rate (Echinochloa crusgalli; dosage 1500 g/hm^2): 5.6%
actual fresh weight inhibition rate (Setaria viridis; dosage 375 g/hm^2): 2.9%
actual fresh weight inhibition rate (Setaria viridis; dosage 750 g/hm^2): 3.9%
actual fresh weight inhibition rate (Setaria viridis; dosage 1500 g/hm^2): 6.2%

CCNc1nc(Cl)nc(NC(C)(C)C)n1 [terbuthylazine]
actual fresh weight inhibition rate (Echinochloa crusgalli; dosage 375 g/hm^2): 31.4%
actual fresh weight inhibition rate (Echinochloa crusgalli; dosage 750 g/hm^2): 42.1%
actual fresh weight inhibition rate (Echinochloa crusgalli; dosage 1500 g/hm^2): 51.7%
actual fresh weight inhibition rate (Setaria viridis; dosage 375 g/hm^2): 25.2%
actual fresh weight inhibition rate (Setaria viridis; dosage 750 g/hm^2): 30.6%
actual fresh weight inhibition rate (Setaria viridis; dosage 1500 g/hm^2): 42.3%
